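Dose response: 5 concentrations. Exposure: 48 h. Format: 96-well plates. Endpoint: linear interpolation; highest concentration if not reached. TGI: concentration producing complete growth inhibition.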 Where a SMILES comes first, the peptide text is derived from it. Bridges are numbered along the chain shown (N, C = ends). [ ]: non-standard residue; d: D form. The star is where a group is joined. Cbz = O=C(OCc1ccccc1)*; Aib = CC(C)(N)C(=O)O; OBn = c1ccc(CO*)cc1; βAla = NCCC(=O)O
Experiments:
Experiment in all cases: DTP human tumour cell line panel, 48 h
HCC-2998 colon = test system: HCC-2998 colon
TK-10 renal = test system: TK-10 renal
A549 NSCLC = test system: A549 NSCLC
SK-MEL-28 melanoma = test system: SK-MEL-28 melanoma
SN12C renal = test system: SN12C renal
CCRF-CEM leukemia = test system: CCRF-CEM leukemia
786-0 renal = test system: 786-0 renal
SF-268 CNS = test system: SF-268 CNS
IGROV1 ovarian = test system: IGROV1 ovarian
RPMI-8226 leukemia = test system: RPMI-8226 leukemia
SNB-75 CNS = test system: SNB-75 CNS
K-562 leukemia = test system: K-562 leukemia
HOP-62 NSCLC = test system: HOP-62 NSCLC
MDA-MB-231 breast = test system: MDA-MB-231 breast
U251 CNS = test system: U251 CNS
MCF7 breast = test system: MCF7 breast
UO-31 renal = test system: UO-31 renal
NCI/ADR-RES ovarian = test system: NCI/ADR-RES ovarian
SR leukemia = test system: SR leukemia

| SMILES | TGI (HCC-2998 colon) [µM] | TGI (TK-10 renal) [µM] | TGI (A549 NSCLC) [µM] | TGI (SK-MEL-28 melanoma) [µM] | TGI (SN12C renal) [µM] | TGI (CCRF-CEM leukemia) [µM] | TGI (786-0 renal) [µM] | TGI (SF-268 CNS) [µM] | TGI (IGROV1 ovarian) [µM] | TGI (RPMI-8226 leukemia) [µM] | TGI (SNB-75 CNS) [µM] | TGI (K-562 leukemia) [µM] | TGI (HOP-62 NSCLC) [µM] | TGI (MDA-MB-231 breast) [µM] | TGI (U251 CNS) [µM] | TGI (MCF7 breast) [µM] | TGI (UO-31 renal) [µM] | TGI (NCI/ADR-RES ovarian) [µM] | TGI (SR leukemia) [µM] |
| --- | --- | --- | --- | --- | --- | --- | --- | --- | --- | --- | --- | --- | --- | --- | --- | --- | --- | --- | --- |
| CN(C)/N=C(\CCN1CCCC1)CC(c1ccccc1)c1c(O)c2ccccc2oc1=O (stereo not given) | > 100 | > 100 | > 100 | > 100 | > 100 | > 100 | > 100 | > 100 | > 100 | > 100 | > 100 | > 100 | > 100 | – | – | – | – | – | – |
| C1=C2C3=[N+](CCCC3)CC2Cc2ccsc21 (stereo not given) | – | > 100 | > 100 | > 100 | > 100 | > 100 | > 100 | > 100 | > 100 | – | > 100 | > 100 | > 100 | > 100 | > 100 | > 100 | > 100 | > 100 | – |
| O=c1[nH]nc(-c2cccc(Br)c2)[nH]1 | > 100 | > 100 | > 100 | > 100 | > 100 | > 100 | > 100 | > 100 | > 100 | > 100 | > 100 | > 100 | > 100 | – | > 100 | > 100 | > 100 | > 100 | > 100 |
| CO/N=C(\C(=O)Nc1cncs1)c1csc(NC(c2ccccc2)(c2ccccc2)c2ccccc2)n1 | > 10 | > 10 | > 10 | > 10 | > 10 | > 10 | > 10 | > 10 | > 10 | > 10 | > 10 | > 10 | > 10 | – | > 10 | > 10 | > 10 | > 10 | > 10 |
| Cc1oc2nc(N(C)C)nc(Cl)c2c1C | > 100 | > 100 | > 100 | > 100 | > 100 | > 100 | > 100 | > 100 | > 100 | > 100 | > 100 | > 100 | > 100 | > 100 | > 100 | – | > 100 | > 100 | – |
| COc1cc2c(c(OC)c1OC)-c1ccc(SC)c(=O)cc1C(CC(=O)Oc1ccc([N+](=O)[O-])cc1)C2 (stereo not given) | 2.13 | > 51.3 | > 100 | > 56.6 | > 43.1 | > 100 | > 37.2 | 31.4 | > 49.2 | > 63 | 0.68 | – | > 100 | – | 1.43 | – | > 100 | – | > 38 |
| O=[N+]([O-])C(C(Cl)=C(Cl)Cl)=C(N1CCOCC1)N1CCOCC1 | > 100 | > 100 | > 100 | > 100 | > 100 | > 100 | > 100 | > 100 | > 100 | > 100 | > 100 | > 100 | > 100 | > 100 | > 100 | – | > 100 | – | – |
| CCOC(=O)CC(NC(=O)c1nc[nH]c1[N+](=O)[O-])C(=O)OCC (stereo not given) | > 100 | 94.1 | > 100 | > 100 | > 100 | > 100 | > 100 | > 100 | > 100 | > 100 | > 100 | > 100 | > 100 | – | 36.9 | – | > 100 | – | > 100 |
| N#CCCN(CCC#N)c1ccc(C(=O)NN)cc1 | > 100 | > 100 | > 100 | > 100 | > 100 | > 100 | > 100 | > 100 | > 100 | > 100 | > 100 | > 100 | > 100 | – | > 100 | – | > 100 | – | – |
| Cc1[nH]c(=O)[nH]c(=S)c1C(=O)NC(C)(CO)CO | > 100 | > 100 | > 100 | > 100 | > 100 | > 100 | > 100 | > 100 | > 100 | – | > 100 | > 100 | > 100 | > 100 | > 100 | > 100 | > 100 | > 100 | – |
| CC(=O)OC1CC2OC(Cc3ccccc32)O1 (stereo not given) | > 100 | > 100 | > 100 | > 100 | > 100 | > 100 | > 100 | > 100 | > 100 | > 100 | > 100 | > 100 | > 100 | – | > 100 | – | > 100 | – | > 100 |
| Cn1c(=O)c2c(nc(NCCCCl)n2CC(=O)NCCCCl)n(C)c1=O | > 100 | > 100 | > 100 | > 100 | > 100 | > 100 | > 100 | > 100 | > 100 | > 100 | > 100 | > 100 | > 100 | > 100 | > 100 | – | > 100 | > 100 | – |
| O=P(c1ccccc1)(c1ccccc1)C(NCc1ccccc1)c1ccc(F)cc1 (stereo not given) | 29.6 | 32 | 30.2 | 28.9 | 36.6 | 48.6 | 34.8 | 37.4 | 33.4 | > 100 | 48.3 | 65.4 | 42.6 | 26.1 | 30 | – | 25.3 | 41.2 | 49.5 |
| CCCCn1c(C)c(C(=O)OCC)c2cc(OCc3ccc(C(=O)Nn4c(C)ccc4C)cc3)c(Br)cc21 | > 100 | > 100 | > 100 | > 100 | > 100 | > 100 | > 100 | > 100 | > 100 | > 100 | > 100 | > 100 | > 100 | – | > 100 | > 100 | – | > 100 | > 100 |
| O=C(c1ccc(Cl)cc1Cl)N(C(=O)N1CCCCC1)c1ccccc1 | – | > 100 | – | > 100 | > 100 | > 100 | > 100 | > 100 | > 100 | > 100 | – | > 100 | – | > 100 | > 100 | > 100 | > 100 | > 100 | – |
| CC1=CC(=O)NP(=O)(Oc2ccc(C)cc2)N1 (stereo not given) | – | > 100 | – | > 100 | > 100 | > 100 | > 100 | > 100 | > 100 | > 100 | > 100 | > 100 | > 100 | – | > 100 | – | > 100 | – | > 100 |
| Cc1ccccc1Nc1cn(COCc2ccccc2)c(=O)[nH]c1=O | > 100 | – | > 100 | > 100 | > 100 | > 100 | > 100 | > 100 | > 100 | > 100 | – | > 100 | > 100 | – | > 100 | > 100 | > 100 | > 100 | – |
| O=C(CC(=O)n1nc(-c2ccccc2)c(N=Nc2ccc(Cl)cc2)c1-c1ccccc1)Nc1cccc(Cl)c1 | > 100 | > 100 | > 100 | > 100 | > 100 | > 100 | > 100 | – | > 100 | > 100 | > 100 | > 100 | > 100 | > 100 | > 100 | – | > 100 | – | > 100 |
| O=C(CSc1nnc(Cc2ccccc2)o1)Nc1cccc([N+](=O)[O-])c1 | > 100 | > 100 | > 100 | > 100 | > 100 | > 100 | > 100 | > 100 | > 100 | > 100 | > 100 | > 100 | > 100 | – | > 100 | – | > 100 | – | – |
| COc1cc(C2c3cc4c(cc3[C@@H](Nc3ccccc3)C3CO[C@@H](OC)[C@H]23)OCO4)cc(OC)c1O (stereo not given in full) | > 25 | > 25 | 12.1 | > 25 | > 25 | 11.3 | 15.4 | > 25 | > 25 | 10.2 | > 25 | > 25 | > 25 | – | > 25 | > 25 | 8.03 | > 25 | 22.6 |
| CC1(C)NC(=O)C(NC(=O)C(CC(=O)OCc2ccccc2)NC(=O)OCc2ccccc2)CCCCNC(=O)CCNC1=O (stereo not given) (Cbz-D(OBn)K[Aib][βAla]; lactam 2-C; configuration not given here) | > 100 | > 100 | > 100 | > 100 | > 100 | – | > 100 | > 100 | > 100 | > 100 | > 100 | > 100 | > 100 | > 100 | > 100 | > 100 | > 100 | > 100 | – |
| N#CC1=C(N2CCCC2)NC(=O)CC1=O | > 100 | > 100 | > 100 | > 100 | > 100 | > 100 | > 100 | > 100 | > 100 | > 100 | – | > 100 | > 100 | > 100 | > 100 | – | > 100 | > 100 | > 100 |
| C/C(=N\NC(=S)N1CC2CCC(CC2)C1)c1ccncn1 | – | 2.56 | 1.94 | > 22.6 | 5.16 | – | 2.86 | 3.62 | 3.78 | – | 3.4 | – | 12.1 | – | 6.23 | 7.61 | 0.911 | – | – |
| O=C1CCC(c2ccccc2)C(O)(C(=O)O)C1 (stereo not given) | > 100 | > 100 | > 100 | > 100 | > 100 | > 100 | > 100 | > 100 | > 100 | > 100 | > 100 | > 100 | > 100 | – | > 100 | – | > 100 | – | > 100 |
| Cc1cc(O)c(/C=N/C(=S)NCCc2ccccc2)c(=O)o1 | > 100 | > 100 | > 100 | > 100 | > 100 | – | > 100 | – | > 100 | – | > 100 | – | > 100 | > 100 | > 100 | > 100 | > 100 | > 100 | – |
| CC1=CC(=O)NCCN1C | > 100 | > 100 | > 100 | > 100 | > 100 | > 100 | > 100 | > 100 | > 100 | – | > 100 | > 100 | > 100 | – | > 100 | – | > 100 | – | > 100 |
| Cc1cc(=O)[nH]c(NNC(C#N)c2ccc(O)cc2)n1 (stereo not given) | – | > 100 | > 100 | > 100 | > 100 | > 100 | > 100 | > 100 | > 100 | > 100 | > 100 | > 100 | > 100 | – | > 100 | – | > 100 | – | > 100 |
| O=C1NC(Nc2cccc(Cl)c2)=N/C1=C\c1ccc(Cl)c(Cl)c1 | 5.27 | 22.4 | 16 | 32.1 | 5.57 | 35.3 | 13 | 19.4 | 18.7 | 22.7 | 26.6 | 14.5 | 23.4 | – | 14.6 | 11.1 | 20.6 | 16.2 | 7.37 |

— PubChem BioAssay (NCI)
